The values below come from publication PMC10994559 (PLOS Neglected Tropical Diseases, 2024).

What is called viability is a read-out of living cells in per cent, often relative to untreated cells. Usually melting point stands for the temperature of the solid-liquid transition.

SMILES strings stand for the structures. Where “and” joins values, the source holds several entries; their conditions need not be identical. Equal entries are not always repeated. Where two headings read alike, the source gives them in different places.

The test system of data set [1] is L. infantum promastigotes. As to the kind of experiment: L. infantum promastigote viability, resazurin reduction. The format is cell-based, Leishmania infantum. The conditions noted are these: Leishmania infantum, sheet LTC_compound_viability, value ± spread; for viability at 2.5 µM: read-out: viability, L. infantum promastigote (2.5 µM); for viability at 25 µM: read-out: viability, L. infantum promastigote (25 µM). From the text: (§1) The infectivity of the parasites was boosted by passaging in Balb/c mice and culturing the infected lymph nodes after six weeks. L. infantum (MHOM / BR / 76 / M4192) parasite was passaged in the same media formulation with 0.5% urine.
(Resazurin is reduced to fluorescent resorufin, in cell work by metabolically active cells.)

For data set [2], the system named is intracellular L. infantum amastigotes. As to the kind of experiment: Parasite rescue assay (intramacrophage, J774 infected with L. infantum). To be noted: for viability at 25 µM: J774, rescue assay in J774, 25 µM, read-out: Residual viability, intracellular L. infantum amastigote (25 µM). Type of data set: cell-based, Leishmania infantum. The procedure: After 24 h incubation, cells were washed five times with serum free RPMI and exposed to a serial dilution of test compounds, prepared using an acoustic dispenser (Echo 650, Labcyte), in RPMI (2% FCS). After two days, cells were washed thrice, and 20 μl of 0.05% SDS in RPMI was added upon removal of the supernatant. Upon incubation under orbital shaking for 30 seconds, cell lysis was stopped by addition of 180 μl M199 medium supplemented with 10% FCS. […] Then, fluorescence intensity of the samples was measured with a microplate reader (Synergy H1, BioTek) with λEx: 550 nm and λEm: 590 nm. Percent of viability was calculated according to cell only and media controls.
J774A.1 cells (J774) were infected with L. infantum metacyclic promastigotes. […] After controlled lysis of the infected macrophages, the released parasites were quantified using a resazurin based viability assay.

Data set [3] deals with T. brucei brucei BSF. The data set is described as follows: T. brucei BSF viability, resazurin reduction. Type of data set: cell-based, Trypanosoma brucei brucei. To be noted: for viability at 25 µM: read-out: viability, T.brucei (25 µM); for EC50: ± SD (Table 2) / ± SE (S3 Table).
In data set [4] the test system is L. major promastigotes. As to the kind of experiment: L. major promastigote viability, resazurin reduction. The conditions noted are these: Leishmania major, read-out: viability, L.major promastigote (25 µM). Type of data set: cell-based, Leishmania major.
Source text: as §1

A short description of data set [5]: Cytotoxicity assay J774, resazurin reduction. The format is cell-based, murine. The conditions noted are these: mouse, J774 macrophage cells; for viability at 72 h, 2.5 µM: read-out: viability, J774 (2.5 µM); for viability at 72 h, 25 µM: read-out: viability, J774 (25 µM). An outline of the steps: (§2)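 J774 and HepG2 cells were seeded at 0.5x10^5 cell/well and exposed to serially diluted compounds for 72 h at 37°C, 5% CO2. Viability was read by fluorescence resazurin reduction (λEx 550 nm, λEm 590 nm).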

For data set [6], the system named is Murine macrophage cells (J774). The data set is described as follows: Cytotoxicity assay J774, resazurin reduction. Type of data set: cell-based. The conditions noted are these: cytotoxicity, 72 h. An outline of the steps:
as §2

In data set [7] the test system is L. major axenic amastigotes. The data set is described as follows: L. major axenic amastigote viability, resazurin reduction. The conditions noted are these: Leishmania major; for viability at 2.5 µM: read-out: viability, L.major amastigote(2.5 µM). An outline of the steps: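 Axenic L. major LV561 amastigotes were grown in Grace medium with 20% FCS, pH 5.4, at 33°C and seeded at 0.5x10^5 cells/well with compounds for 72 h. Resazurin was then added for 6 h and fluorescence read at ex 550/em 590 nm; hits were retested at 2.5 μM.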

Data set [8] deals with E. histolytica. As to the kind of experiment: E. histolytica viability, ATP luminescence (Cell titer glo). Type of data set: cell-based, Entamoeba histolytica. The conditions noted are these: Entamoeba histolytica; for viability at 2.5 µM: read-out: viability, E.histolytica (2.5 µM); for viability at 25 µM: read-out: viability, E.histolytica (25 µM). The procedure, abridged: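 E. histolytica strain B2-5 at 2.5x10^4 cells/ml was exposed to compound for 48 h at 37 °C under anaerobic conditions, with viability read as ATP luminescence (CellTiter-Glo). The primary screen used 25 μM in triplicate, and follow-up potency runs used 9–16-point ranges spanning 0.01–100 μM.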

For data set [9], the system named is T. cruzi trypomastigotes. The data set is described as follows: T. cruzi viability, resazurin reduction. The format is cell-based, Trypanosoma cruzi. The conditions noted are these: Trypanosoma cruzi; for viability at 2.5 µM: read-out: viability, T.cruzi (2.5 µM); for viability at 25 µM: read-out: viability, T.cruzi (25 µM). The procedure, abridged:
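Y-strain trypomastigotes kept in supplemented liver infusion tryptose broth with 10% FCS, pH 7.2, at 28°C. Viability by fluorescence resazurin reduction; single-point screen at 2.5 μM, then 18-concentration dose response. Amphotericin B as control drug.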

Data set [10] relates to human hepatocyte carcinoma HepG2 cells. As to the kind of experiment: Cytotoxicity assay HepG2, resazurin reduction. The format is cell-based. The conditions noted are these: cytotoxicity, 72 h, read-out: EC50 (CT50) HepG2. The procedure:
Mammalian cell lines (J774 and HepG2) were passaged in RPMI media supplemented with MEM, Pen-Strep (1%) and 10% FCS. Cultures were kept at 37°C incubator with 5% CO2 in filter-cap flasks.
Murine macrophage cells (J774) and human hepatocyte carcinoma HepG2 cells were seeded at 0.5x10^5 cell/well in 384 well plates in triplicate, exposed to serial dilution of compounds, dispensed using an Echo 650 acoustic dispenser (Labcyte). After incubation for 72 h at 37°C, 5% CO2, cell viability was determined using fluorescence resazurin reduction assay (λEx: 550 nm; λEm: 590 nm).

The test system of data set [11] is T. brucei brucei BSF. Set-up: method as in PMID 29425238. To be noted: read-out: reported EC50 T. brucei; cited from earlier work.
For data set [12], the system named is intracellular L. infantum amastigotes. As to the kind of experiment: Parasite rescue assay (intramacrophage, J774 infected with L. infantum). Type of data set: cell-based, Leishmania infantum. To be noted: J774, 25 µM; intracellular amastigote; read-out: viability, intracellular L. major amastigote (25 µM).
Where [13] appears, read: Leishmania infantum, J774, read-out: EC50 L. infantum rescue assay, intramacrophage (J774), 18 concentrations.
Setting [14] is: read-out: EC50 L. infantum rescue assay, intramacrophage (J774), 18 concentrations.
Where [15] appears, read: Trypanosoma brucei, 2.5 µM, read-out: viability, T.brucei (2.5 µM).
[16] abbreviates: Trypanosoma brucei, read-out: EC50 T. brucei BSF, dose response, triplicate.
The mark [17] stands for this setting: read-out: viability, L.major amastigote (25 µM).

For `CC(C)(C)OC(=O)NC(Cc1ccccc1)C(O)CNc1cccc(C(F)(F)F)c1` (stereo not shown) [LTC-1025], the viability at 2.5 µM stood at 55.3 ± 1.69% in [1]; 78 ± 4.59% in [3] (setting [15]); 77 ± 1.6% in data set [7]; 45.9 ± 11.6% in data set [8]; 63.1 ± 2.47% in [9]. The viability at 25 µM in data set [1] stood at 0.7 ± 0.03%; in data set [2] (Leishmania infantum), 2.8%; in data set [3] (Trypanosoma brucei, 25 µM) it was 2.26 ± 1.07%; in data set [4] (72 h), 88.3 ± 1.36%; in [4] (25 µM), 0.16 ± 0.69%; in data set [7] (setting [17]) it was 21.2 ± 2.05%. The values for the viability at 25 µM in data set [8] and in [9] were 55.3 ± 4.32% and 23.4 ± 2.5%, respectively. For the same compound, the EC50 in [2] (setting [13]) was 2.9 ± 2.9 µM; in data set [2] (setting [14]), 2.8 µM and 2.84 µM; in data set [3] (setting [16]), 3.7 ± 1.7 µM; in [6] (Mus musculus, J774, 72 h), greater than 25 µM; in data set [6] it was greater than 16 µM; in [10] (Homo sapiens, HepG2, 72 h), 31.6 ± 1.7 µM. In addition, the EC50 in [10] is 33.8 µM and 31.6 µM. In addition, the viability at 72 h, 2.5 µM in data set [5] is 75.1 ± 3.41%. Also, the viability at 72 h, 25 µM in data set [5] came to 98.5 ± 8.61%.

For `CC(C)(C)OC(=O)NC(Cc1ccccc1)C(O)CNc1ccc(OC(F)(F)F)cc1` (stereo not shown) [LTC-1023], the viability at 2.5 µM in data set [1] was 67.5 ± 2.44%; in [3] (setting [15]), -1.06 ± 0.31%; in data set [3] (Trypanosoma brucei, 72 h, read-out: Residual viability, T.brucei (2.5 µM), BSF, 2.5 µM, 72 h), less than 10%; in [7] it was 68.4 ± 1.28%; in data set [8] it was 48.5 ± 4.19%; in data set [9], 58.51 ± 0.23%. In addition, the viability at 25 µM was 1.5 ± 0.05% in data set [1]; 4.9% in [2] (Leishmania infantum); 1.99 ± 1% in data set [3] (Trypanosoma brucei, 25 µM); 88.6 ± 3.09% in data set [4] (72 h); 0.83 ± 1.76% in data set [4] (25 µM); 18 ± 1.91% in data set [7] (setting [17]). The viability at 25 µM in data set [8] was 59.6 ± 14.7%; in [9] it was 23.2 ± 1.67%. The EC50 in data set [2] (setting [13]) is 4.1 ± 1.8 µM; in data set [2] (setting [14]) it was 4.08 ± 1.8 µM; in data set [3] (setting [16]) it was 1.1 ± 1.7 µM; in [6] (Mus musculus, J774, 72 h), greater than 25 µM; in [6], greater than 16 µM; in data set [10] (Homo sapiens, HepG2, 72 h), 16.7 ± 1.9 µM. The EC50 in data set [10] is 31.6 µM and 16.7 µM. Further, in data set [5], the viability at 72 h, 2.5 µM was 96.7 ± 4.49%. Also, the viability at 72 h, 25 µM in data set [5] was 75.7 ± 4.65%.

Regarding `NCc1ccc(Oc2ccc3c(c2)COB3O)cc1` [AN3057, reference compound], the “Residual viability, T.brucei (2.5 µM)” value in [3] (BSF, 2.5 µM, 72 h) was 0.3%; in data set [3] (BSF, 2.5 µM, 72 h, listed as An3057, 2.5 µM), 0.32±0.58%. In addition, the “Residual viability, T.brucei (25 µM)” value in [3] (BSF, 25 µM, 72 h) is -2.85±1.48%. Besides, the EC50 was 0.005 ± 0.002 µM in [3] (dose response, triplicate, read-out: EC50 T. brucei BSF) and 0.0052 µM in [11].

The compound `CC(C)(C)c1ccc(NC[C@H](O)[C@@H](N)Cc2ccccc2)cc1` [LTC-1034, (2S,3S)-3-Amino-1-((4-(tert-butyl)phenyl)amino)-4-phenylbutan-2-ol] came in with a melting point of 74 to 76 °C. Further, in [1], the viability at 2.5 µM was 68 ± 22.2% and the viability at 25 µM turned out to be 3.46 ± 0.12%. For the same compound, the viability at 2.5 µM in data set [3] (setting [15]) amounted to 72.8 ± 4.34%. Besides, the viability at 25 µM in [3] (Trypanosoma brucei, 25 µM) worked out at 2.34 ± 1.3%. Moreover, the viability at 25 µM in data set [4] (72 h) amounted to 79.3 ± 17.2%. Also, the viability at 25 µM in [4] (25 µM) turned out to be 6.26 ± 1.21%. In data set [5], the viability at 72 h, 2.5 µM was 96.6 ± 5.47% and the viability at 72 h, 25 µM was 64.1 ± 4.5%. Also, the viability at 25 µM in data set [12] turned out to be 105 ± 5.69%. Also, the viability at 25 µM in data set [7] (72 h, read-out: Residual viability, L.major amastigote (25 µM)) was found to be 15.2%. In addition, in data set [7] (setting [17]), the viability at 25 µM was determined as 15.2 ± 1.86%. Moreover, the viability at 2.5 µM in data set [7] amounted to 73.9 ± 0.76%. Further, in data set [8], the viability at 2.5 µM is 52 ± 6.13% and the viability at 25 µM worked out at 123 ± 5.09%. For the same compound, in data set [9], the viability at 2.5 µM stood at 60.1 ± 2.2% and the viability at 25 µM came out at 30.8 ± 2.5%.

Turning to `N[C@@H](Cc1ccccc1)[C@@H](O)CNc1ccc(F)cc1` [LTC-1026, (2S,3S)-3-Amino-1-((4-fluorophenyl)amino)-4-phenylbutan-2-ol], the melting point was in the range of 88 to 90 °C. Moreover, in data set [1], the viability at 2.5 µM turned out to be 84.16 ± 0.61% and the viability at 25 µM is 56.98 ± 0.29%. Also, the viability at 2.5 µM in [3] (setting [15]) worked out at 71.2 ± 5.23%. Also, the viability at 25 µM in data set [3] (Trypanosoma brucei, 25 µM) was 2.26 ± 0.92%. Besides, the viability at 25 µM in [4] (72 h) came out at 93.3 ± 1.34%. In addition, the viability at 25 µM in [4] (25 µM) is 34.1 ± 3.37%. Also, in data set [5], the viability at 72 h, 2.5 µM is 94.6 ± 3.96% and the viability at 72 h, 25 µM is -0.01 ± 0.89%. The viability at 25 µM in [12] amounted to 102 ± 4.55%. The viability at 25 µM in data set [7] (setting [17]) was found to be 59.5 ± 7.56%. For the same compound, in data set [8], the viability at 2.5 µM came out at 65.6 ± 10.1% and the viability at 25 µM was determined as 113 ± 30.5%. Moreover, in [9], the viability at 2.5 µM amounted to 58.6 ± 1.12% and the viability at 25 µM is 57.8 ± 6.73%.
